The values that follow come from patent publication US4907606A, “Tobacco compositions, method and device for releasing essentially pure nicotine” (AB Leo, priority 1984, dated 1990).

The structures appear in SMILES notation. Read-outs that look alike come from different tables or passages of the source.

The nature of this data set: Bioavailability: blood plasma nicotine levels after inhalation of air from the glass columns. The format is in vivo. The note with it: human, inhaled or intranasal, test persons abstained from nicotine for 12 h, read-out: Plasma nicotine, peak value. Here is the method:
Untreated tobacco was used as reference.
The bioavailability of nicotine, i.e. the blood plasma nicotine levels, after inhalation of air from the glass columns prepared as described above at 65° C. and 75° C., respectively was also investigated. The test persons had abstained from smoking or having nicotine in any other way for 12 h before the test.

For `CN1CCCC1c1cccnc1` (centres unmarked) [nicotine], the Cmax is, setting by setting: (column at 65 °C) 5 ng/mL; (column at 75 °C) 10 to 15 ng/mL.
